The results in this text go back to ChEMBL document CHEMBL1795228, “Air to lung partition coefficients for volatile organic compounds and blood to lung partition coefficients for volatile organic compounds and drugs” (Eur J Med Chem, 2008).

Each structure is given as a SMILES string.

The nature of data set [1]: In-vivo blood to lung partition coefficients of the compound, logP(lung) in rat. The class given is ADME.
The nature of data set [2]: In-vivo serum to lung partition coefficients of the compound, logP(lung) in rat. Format: ADME. The note with it: octanol/water.
The nature of data set [3]: In-vivo blood/plasma to lung partition coefficients of the compound, logP(lung) in rat. The class given is ADME, cell-free. To be noted: octanol/water.
Data set [4] is described as follows: In-vitro air to lung partition coefficients of the compound, logK(lung) (human/rat). The note with it: octanol/water.
Data set [5] in a line: In-vitro air to blood partition coefficients of the compound, logK(blood) (human/rat). The note with it: octanol/water.
Data set [6] is described as follows: In-vitro blood to lung partition coefficients of the compound, logP(lung) (human/rat).

As for `COc1ccc(CCCn2ncc3c2nc(N)n2nc(-c4ccco4)nc32)cc1`, the “logP(lung)” value in data set [1] is 0.62.

In the case of `COC(=O)Nc1nc2cc(C(=O)N3CCN(c4ccccn4)CC3)ccc2[nH]1`, the “logP(lung)” value in data set [2] was -0.29.

For `C=CC(=O)O` [ACRYLIC ACID], the “logP(lung)” value in data set [1] is recorded as 0.14.

For the molecule `CC[C@H]1OC(=O)[C@H](C)[C@@H](O[C@H]2C[C@@](C)(OC)[C@@H](O)[C@H](C)O2)[C@H](C)[C@@H](O[C@@H]2O[C@H](C)C[C@H](N(C)C)[C@H]2O)[C@](C)(O)C[C@@H](C)CN(C)[C@H](C)[C@@H](O)[C@]1(C)O` [AZITHROMYCIN], in data set [2], the “logP(lung)” value stood at 2.08.

For the molecule `CN(C)CCCN1c2ccccc2Sc2ccc(Cl)cc21` [CHLORPROMAZINE], in data set [1], the “logP(lung)” value was determined as 1.81.

With `CN(C)CCCN1c2ccccc2CCc2ccc(Cl)cc21` [CLOMIPRAMINE], the “logP(lung)” value in data set [1] is 2.16.

For `CCc1cc2c(s1)N(C)C(=O)CN=C2c1ccccc1Cl` [CLOTIAZEPAM], the “logP(lung)” value in data set [1] was 1.04.

For the molecule `CC[C@H]1OC(=O)[C@H](C)[C@@H](O[C@H]2C[C@@](C)(OC)[C@@H](O)[C@H](C)O2)[C@H](C)[C@@H](O[C@@H]2O[C@H](C)C[C@H](N(C)C)[C@H]2O)[C@](C)(O)C[C@@H](C)C(=O)[C@H](C)[C@@H](O)[C@]1(C)O` [ERYTHROMYCIN], in data set [2], the “logP(lung)” value was found to be 1.62.

Consider `O=C(CCCN1CCC(O)(c2ccc(Cl)cc2)CC1)c1ccc(F)cc1` [HALOPERIDOL], for which, in data set [1], the “logP(lung)” value is given as 1.73.

Take `Oc1ccc(O)cc1` [HYDROQUINONE]: in data set [1], the “logP(lung)” value is given as -0.16.

In the case of `OCCOCCN1CCN(C(c2ccccc2)c2ccc(Cl)cc2)CC1` (stereo not given) [HYDROXYZINE], in data set [1], the “logP(lung)” value is 1.06.

As for `COCCc1ccc(OCC(O)CNC(C)C)cc1` (stereo not given) [METOPROLOL], the “logP(lung)” value in data set [1] is 1.06.

`Cc1ncc2n1-c1ccc(Cl)cc1C(c1ccccc1F)=NC2` [MIDAZOLAM]: in data set [3], the “logP(lung)” value was determined as 0.6.

For the molecule `O=C1CN=C(c2ccccc2)c2cc([N+](=O)[O-])ccc2N1` [NITRAZEPAM], the “logP(lung)” value in data set [1] was found to be 0.26.

On to `C1CO1` [OXIRANE], for which the “logK(lung)” value in data set [4] is recorded as 1.79. For the same molecule, in data set [5], the “logK(blood)” value stood at 1.8. The “logP(lung)” value in data set [6] was -0.01.

Take `C=CCOc1ccccc1OCC(O)CNC(C)C` (stereo not given) [OXPRENOLOL]: the “logP(lung)” value in data set [3] worked out at 1.27.

Take `O=O` [OXYGEN]: the “logK(lung)” value in data set [4] is listed as -1.62. In data set [5], the “logK(blood)” value is given as -1.58. Further, the “logP(lung)” value in data set [6] was -0.04.

In the case of `CCCCC` [PENTANE], the “logK(lung)” value in data set [4] was -0.3. Moreover, in data set [5], the “logK(blood)” value was -0.29. In data set [6], the “logP(lung)” value was -0.01.

`CC(=O)Nc1ccc(OCC(O)CNC(C)C)cc1` (stereo not given) [PRACTOLOL]: in data set [1], the “logP(lung)” value was 0.48.

On to `C=CC` [PROPENE], for which the “logK(lung)” value in data set [4] was -0.24. Also, the “logK(blood)” value in data set [5] is on record as -0.21. Also, the “logP(lung)” value in data set [6] is reported as -0.03.

For the molecule `FCOC(C(F)(F)F)C(F)(F)F` [SEVOFLURANE], the “logK(lung)” value in data set [4] was 0.11. Also, the “logK(blood)” value in data set [5] was -0.2. Further, the “logP(lung)” value in data set [6] is 0.31.

As for `FS(F)(F)(F)(F)F` [SULFUR HEXAFLUORIDE], the “logK(lung)” value in data set [4] is given as -2.14. Besides, the “logK(blood)” value in data set [5] is -2.17. Further, the “logP(lung)” value in data set [6] is listed as 0.03.

For the molecule `ClC(Cl)=C(Cl)Cl` [TETRACHLOROETHYLENE], the “logK(lung)” value in data set [4] is recorded as 1.86. In addition, the “logK(blood)” value in data set [5] came out at 1.19. For the same molecule, in data set [6], the “logP(lung)” value was 0.67.

On to `CC(Cl)(Cl)Cl` [TRICHLOROETHANE], for which the “logK(lung)” value in data set [4] is reported as 0.67. Further, the “logK(blood)” value in data set [5] is 0.63. Besides, the “logP(lung)” value in data set [6] turned out to be 0.04.

As for `ClC=C(Cl)Cl` [TRICHLOROETHYLENE], the “logK(lung)” value in data set [4] is given as 1.15. Besides, in data set [5], the “logK(blood)” value was 1.14. Also, in data set [6], the “logP(lung)” value is given as 0.01.

For `CN1CCN(CCCN2c3ccccc3Sc3ccc(C(F)(F)F)cc32)CC1` [TRIFLUOPERAZINE], the “logP(lung)” value in data set [1] is 1.33.

Regarding `OC(CCN1CCCCC1)(c1ccccc1)C1CCCCC1` (stereo not given) [TRIHEXYPHENIDYL], the “logP(lung)” value in data set [1] amounted to 1.87.
